Reference: the supplement of paper PMC10307832

Tests used:
Experiment in all cases: relative viability (nuclei count vs DMSO), 5 days (fraction); higher = more cells survive
PC-3 [JPC-3] = test system: PC-3 [JPC-3]
Method in brief: (§1)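 Relative viability equals treated-well nuclei counts divided by vehicle-well nuclei counts. Counts came from 4× images of lung cancer cell lines grown in 1536-well plates for 5 days after pin-tool dosing on the day after seeding. Dosing used one drug alone or a fixed anchor-drug dose plus five library-drug doses (not always all listed) in √10 steps, and values are medians of duplicate plates.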

NCI-H23 = test system: NCI-H23
Method in brief: as §1

NCI-H441 = test system: NCI-H441
Method in brief: as §1

NCI-H460 = test system: NCI-H460
Method in brief: as §1

NCI-H727 = test system: NCI-H727
Method in brief: as §1

NCI-H596 = test system: NCI-H596
Method in brief: as §1

NCI-H1437 = test system: NCI-H1437
Method in brief: as §1

NCI-H358 = test system: NCI-H358
Method in brief: as §1

NCI-H322M = test system: NCI-H322M
Method in brief: as §1

NCI-H520 = test system: NCI-H520
Method in brief: as §1

NCI-H1650 = test system: NCI-H1650
Method in brief: as §1

Cc1cn(-c2cc(NC(=O)c3ccc(C)c(Nc4nccc(-c5cccnc5)n4)c3)cc(C(F)(F)F)c2)cn1 [Nilotinib] + C[C@@H](Oc1cc(-c2cnn(C3CCNCC3)c2)cnc1N)c1c(Cl)ccc(F)c1Cl [Crizotinib] (partner 1 µM)
relative viability (PC-3 [JPC-3]; first compound 0.003162 µM): 1.23 | relative viability (PC-3 [JPC-3]; first compound 0.01 µM): 1.06 | relative viability (PC-3 [JPC-3]; first compound 0.03162 µM): 0.882 | relative viability (PC-3 [JPC-3]; first compound 0.1 µM): 0.88 | relative viability (NCI-H23; first compound 0.001 µM): 0.471 | relative viability (NCI-H23; first compound 0.003162 µM): 0.442 | relative viability (NCI-H23; first compound 0.01 µM): 0.6 | relative viability (NCI-H23; first compound 0.03162 µM): 0.328 | relative viability (NCI-H23; first compound 0.1 µM): 0.378 | relative viability (NCI-H441; first compound 0.001 µM): 0.728 | relative viability (NCI-H441; first compound 0.003162 µM): 0.825 | relative viability (NCI-H441; first compound 0.01 µM): 0.601 | relative viability (NCI-H441; first compound 0.1 µM): 0.652 | relative viability (NCI-H460; first compound 0.001 µM): 0.752 | relative viability (NCI-H460; first compound 0.003162 µM): 1.06 | relative viability (NCI-H460; first compound 0.01 µM): 1.56 | relative viability (NCI-H460; first compound 0.03162 µM): 0.245 | relative viability (NCI-H460; first compound 0.1 µM): 0.901 | relative viability (NCI-H727; first compound 0.001 µM): 0.865 | relative viability (NCI-H727; first compound 0.01 µM): 1.05 | relative viability (NCI-H727; first compound 0.03162 µM): 0.575 | relative viability (NCI-H727; first compound 0.1 µM): 0.483 | relative viability (NCI-H596; first compound 0.001 µM): 0.937 | relative viability (NCI-H596; first compound 0.01 µM): 1.07 | relative viability (NCI-H596; first compound 0.03162 µM): 0.958 | relative viability (NCI-H596; first compound 0.1 µM): 1.1 | relative viability (NCI-H1437; first compound 0.001 µM): 0.789 | relative viability (NCI-H1437; first compound 0.003162 µM): 1.25 | relative viability (NCI-H1437; first compound 0.01 µM): 1.13 | relative viability (NCI-H1437; first compound 0.03162 µM): 0.705 | relative viability (NCI-H1437; first compound 0.1 µM): 0.866 | relative viability (NCI-H358; first compound 0.001 µM): 0.447 | relative viability (NCI-H358; first compound 0.003162 µM): 0.473 | relative viability (NCI-H358; first compound 0.01 µM): 0.407 | relative viability (NCI-H358; first compound 0.03162 µM): 0.469 | relative viability (NCI-H358; first compound 0.1 µM): 0.735 | relative viability (NCI-H322M; first compound 0.001 µM): 1.06 | relative viability (NCI-H322M; first compound 0.003162 µM): 0.869 | relative viability (NCI-H322M; first compound 0.03162 µM): 0.727 | relative viability (NCI-H322M; first compound 0.1 µM): 0.984 | relative viability (NCI-H520; first compound 0.001 µM): 0.656 | relative viability (NCI-H520; first compound 0.01 µM): 0.866 | relative viability (NCI-H520; first compound 0.03162 µM): 0.483 | relative viability (NCI-H520; first compound 0.1 µM): 0.678 | relative viability (NCI-H1650; first compound 0.001 µM): 1.07 | relative viability (NCI-H1650; first compound 0.003162 µM): 1.1 | relative viability (NCI-H1650; first compound 0.01 µM): 0.998 | relative viability (NCI-H1650; first compound 0.03162 µM): 0.777 | relative viability (NCI-H1650; first compound 0.1 µM): 0.87
